Data as given in paper PMC10313368 (The Journal of Clinical Investigation, 2023).
Where two headings read alike, the source gives them in different places.

How the values were obtained:
HIF-2α = target: T1, HIF-2α (Mus musculus, UniProt P97481); experiment: Western blot of HIF-2α protein accumulation in retina of OIR mice (P14); format: in vivo
T1 construct: from tissue; host or cells: retina of C57BL/6 OIR pups
Description: Immunoblot assays. Cells, neurosensory retina, and D120 retinal organoid lysates were subjected to 4–15% gradient SDS/PAGE (Invitrogen). Immunoblot (Western blot or WB) assays were performed as previously described (1).
Reverse transcription and quantitative real-time PCR. Total RNA was isolated from cultured cells or retinas with PureLinkTM RNA Mini Kit (Invitrogen #12183025), and cDNA was prepared with MuLV Reverse Transcriptase (Applied Biosystems). Quantitative real-time PCR was performed with Power SYBR Green PCR Master Mix (Applied Biosystems) and MyiQ Real-Time PCR Detection System (Bio-Rad). Normalization was done using cyclophilin A for mouse tissue and human cell lines. Primers are listed in Supplemental Table 2.
Angiogenesis array. […]
cDNA was prepared with QuantiTect® Reverse Transcription Kit (Qiagen, Cat# 205311). […]
4444554). […] The data were analyzed by using HPRT1 as endogenous […]
HUVEC cells, Euclidean distance was used to quantify the difference in qPCR screening. The Euclidean distance was calculated using “dist” function from R’s default stat library that measures the distance between 2 vectors (i.e., total qPCR expression values in control and treatment). […]
STZ-induced diabetes mouse model. […] Blood glucose was measured on experimental day 28 after 16 hours fasting and mice with blood glucose level > 250 mg/dL were considered […]

[1] = Mouse pharmacokinetics in retina after intraocular injection (LC-MS/MS); format: in vivo; conditions: for AUC % Extrapolated / AUClast / Cmax / half-life / Tmax: retina; for half-life / Tmax: C57BL/6, mouse, topical or ocular; for half-life: 280 ng
Description: intraocular injection. Mice (at least 3 mice per time point) were euthanized at 1, 3, 7, or 14 days after injection. For the 280-ng dose, a 10-day time point was added. […]
retina by LC-MS/MS as previously described (5) with the following modifications. Retina tissue samples were homogenized in 200 μL of 1× PBS (pH 7.4) before extraction. The standard curve and quality control samples were prepared in 1× PBS as a surrogate matrix. Retina tissue samples were then quantitated in µM as: nominal concentration (µM) × initial dilution ([tissue weight (mg) + volume of solvent (μl)]/ tissue weight (mg)). For all samples <10 nM, the value was reported as below the limits of detection. If at least on samples was >10 nM and one was <10 nM, then one half that value (5 nM) was imputed to calculate the concentration for that specimen and utilized in the average and standard deviation calculations.
Pharmacokinetic parameters were calculated from mean concentration-time data using noncompartmental methods in Phoenix WinNonlin version 8.3 (Certara, Princeton, NJ, USA). The Cmax and time to Cmax (Tmax) were the observed values. The AUClast was calculated using the log-linear trapezoidal method to the last quantifiable time point. The λz was determined from at least 3 points on the slope of the terminal phase of the concentration-time profile using a 1/y2 weighting factor. The T1/2 was determined by dividing 0.693 by λz. T1/2 was not reported if the correlation coefficient (r2) for λz was less than 0.9.
Bioanalytical method for mouse pharmacokinetics. Retina tissue samples were homogenized in 200 μL of 1× PBS (pH 7.4) before extraction. The standard curve and quality control samples were prepared in 1× PBS as a surrogate matrix for all matrices. Tissue homogenate or PBS (25 μL) was […]
respectively. Dwell time was 150 milliseconds. […]
constructed from the peak area ratio of the analyte to the peak area of its internal standard (EXP-3179) using the least-squares quadratic regression analysis with 1/x2 weight over the range of 10-2,110 nM with dilutions of up to 1:10 (v/v). […]

T1 sequence (P97481 whole entry): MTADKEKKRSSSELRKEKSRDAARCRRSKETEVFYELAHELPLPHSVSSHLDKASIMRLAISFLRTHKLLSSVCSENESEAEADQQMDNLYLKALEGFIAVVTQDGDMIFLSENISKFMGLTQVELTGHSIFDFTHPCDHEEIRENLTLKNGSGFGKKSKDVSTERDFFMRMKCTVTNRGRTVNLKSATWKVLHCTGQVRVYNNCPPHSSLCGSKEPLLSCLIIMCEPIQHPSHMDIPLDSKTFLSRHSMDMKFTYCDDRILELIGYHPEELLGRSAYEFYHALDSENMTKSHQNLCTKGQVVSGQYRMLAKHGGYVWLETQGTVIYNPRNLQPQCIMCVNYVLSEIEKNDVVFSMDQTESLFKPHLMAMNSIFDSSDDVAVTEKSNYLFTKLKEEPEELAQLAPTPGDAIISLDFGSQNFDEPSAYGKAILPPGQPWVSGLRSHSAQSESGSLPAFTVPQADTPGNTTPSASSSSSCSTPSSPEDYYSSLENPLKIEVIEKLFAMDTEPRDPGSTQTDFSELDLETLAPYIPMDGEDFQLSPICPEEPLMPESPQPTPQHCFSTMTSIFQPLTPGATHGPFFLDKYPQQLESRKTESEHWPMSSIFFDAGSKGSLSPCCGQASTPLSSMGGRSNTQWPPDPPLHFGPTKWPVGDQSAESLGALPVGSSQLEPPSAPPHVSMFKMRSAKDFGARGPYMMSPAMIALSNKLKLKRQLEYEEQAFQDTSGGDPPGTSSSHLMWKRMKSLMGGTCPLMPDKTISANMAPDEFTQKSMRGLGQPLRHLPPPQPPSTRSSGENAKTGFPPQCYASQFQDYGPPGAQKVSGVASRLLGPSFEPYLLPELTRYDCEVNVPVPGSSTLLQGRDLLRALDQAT

Brc1ccc2c(-c3csc(-c4c[nH]c5c(Br)cccc45)n3)c[nH]c2c1 [32-134D, 4-(6-bromo-1H-indol-3-yl)-2-(7-bromo-1H-indol-3-yl)thiazole]
HIF-2α protein accumulation in OIR mice (HIF-2α; single i.p. injection 20 mg/kg, P14): reduction | accumulation of HIF-2α in OIR mice (HIF-2α; single intraocular injection 14 ng at P12, P14): effectively reduced | AUC % Extrapolated ([1]; 70 ng eyeball): 21.1% | AUClast ([1]; 70 ng eyeball): 72.3 nmol·days/g | Cmax ([1]; 70 ng eyeball): 19.1 nmol/g | AUC % Extrapolated ([1]; 280 ng eyeball): 2.2% | AUClast ([1]; 280 ng eyeball): 147 nmol·days/g | Cmax ([1]; 280 ng eyeball): 18 nmol/g | half-life ([1]; 280 ng eyeball, read-out: T1/2 (converted)): 42.2 h | half-life ([1]; single 280 ng intraocular injection, read-out: t1/2 in retina (converted)): 43.2 h | Tmax ([1]; 70 ng eyeball): 24 h | Tmax ([1]; 280 ng eyeball): 24 h | Cmax in neurosensory retina ([1]; single 70 ng intraocular injection): 19.1 nmol/g | AUClast in retina ([1]; single 70 ng intraocular injection, over 14 days): 72.3 nmol·days/g | Cmax in neurosensory retina ([1]; single 280 ng intraocular injection): 18 nmol/g | AUClast in retina ([1]; single 280 ng intraocular injection, through 14 days): 147 nmol·days/g | IC50 as used for time above IC50 ([1]; threshold in the pharmacokinetic calculation): 3.51 nmol/g
